Here are results for 20 molecules from patent US20130287721A1, “METHOD FOR COUNTERACTING AMMONIA MALODOR” (Firmenich SA, priority 2010, published 2013).

The assay has as its system ammonia lateralization threshold. Nature of the assay: Panel evaluation of the lateralization threshold (LT) of ammonia alone and in combination with a PRM. Type of assay: in vivo, panellists. The note with it: for Ammonia LT Panellist 1 Cond II / Ammonia LT Panellist 2 Cond II / Ammonia LT Panellist 3 Cond II / Ammonia LT Panellist 1 % Δ / Ammonia LT Panellist 2 % Δ / Ammonia LT Panellist 3 % Δ: Table 3; for Ammonia LT Panellist 1 Cond II / Ammonia LT Panellist 2 Cond II / Ammonia LT Panellist 3 Cond II: ammonia stimulus combined with PRM stimulus (concentration of Table 2 in propylene glycol); for Ammonia LT Panellist 1 % Δ / Ammonia LT Panellist 2 % Δ / Ammonia LT Panellist 3 % Δ / LT of ammonia Panellist 1 %Δ / LT of ammonia Panellist 2 %Δ / LT of ammonia Panellist 3 %Δ: change of ammonia LT, Cond II (with PRM) vs Cond I (ammonia alone); for LT of ammonia Panellist 1 Cond II / LT of ammonia Panellist 2 Cond II / LT of ammonia Panellist 3 Cond II / LT of ammonia Panellist 1 %Δ / LT of ammonia Panellist 2 %Δ / LT of ammonia Panellist 3 %Δ: Table 4; for LT of ammonia Panellist 1 Cond II / LT of ammonia Panellist 2 Cond II / LT of ammonia Panellist 3 Cond II: ammonia stimulus combined with PRM stimulus. Also on record: LT of ammonia Panellist 1 Cond II / LT of ammonia Panellist 2 Cond II / LT of ammonia Panellist 3 Cond II: unit not given here. As to the method:
An ammonia stimulus test range was prepared. To ensure a stable level of ammonia in each stimulus, the ammonia headspace was stabilized by combining appropriate concentrations of NH4Cl, NaOH and H2O instead of simply adding ammonia directly to a solvent. Different concentrations of ammonia were used to create a stimulus test range by utilizing the appropriate amount of each compound (see Table 1).
A stimulus was also prepared for each PRM which was intended to be combined with ammonia stimuli. As the PRMs differed in their potency and to ensure that each PRM stimulus had approximately the same potency, an abbreviated dose response curve was constructed for each PRM by having four panellists evaluate the intensity of five concentration levels of the PRM dissolved in propylene glycol in duplicate. Assessments were made relative to the reference of 170 ppm allyl heptanoate in propylene glycol, which intensity was set to 0. Based upon the average scores, a rough intensity match was made for each PRM utilizing one of the following criteria. If one of the tested concentration levels averaged at or near zero, this concentration level was selected. If the rating created any sort of reasonable curve, the equation of the curve was determined and solved for 0 to arrive at the PRM assessment level. If multiple concentration levels were equally distant form the match level, then the standard deviation across individuals was considered, as were the individual responses. In general, the PRM level was selected to be on average close to 0 with low variability, with two panellists saying the level was a bit too high and the other two panellists saying the level was a bit too low. The PRMs for which a stimulus was prepared are listed in Table 2 below, together with the concentration of the PRM in the stimulus.
Volunteers were screened for their ability to lateralize ammonia stimuli. For the screening, the experimenter measured the participant's lateralization threshold for ammonia using a two-alternative forced choice modified staircase procedure employing a four-in, two-down, one-up rule with a five reversal criterion, as described below, On each trial volunteers were presented with a pair of glass bottles with clean, custom-made nose pieces. One bottle contained ammonia at a particular level selected from Table 1 and the other bottle contained water only. Each bottle was applied to one nostril using the nose piece. The volunteers were asked to identify which bottle in each pair contained ammonia.
If the ammonia stimulus was correctly identified in four consecutive trials, the concentration was decreased by one level of Table 1 on the next trial. If an incorrect answer was provided, the concentration was increased by one level of Table 1. Location (left or right nostril) of the stimulus was randomized over presentations. Testing continued until one of the following occurred: • 1) Five reversals (correct decision followed by an incorrect decision or vice versa) were achieved; • 2) The volunteer gave a correct response twice in a row at the lowest level of Table 1; or • 3) The volunteer gave an incorrect response at the highest level of Table 1.
In the first circumstance, threshold values were then calculated by averaging the last four reversals. In the second circumstance, the LT was the lowest level. In the third circumstance, the LT could not be calculated. Volunteers were considered qualified to participate in the panel evaluation if their LT could be calculated (Circumstance 1).
The LT of ammonia, both alone and in combination with diverse PRM, was determined. A repeated-measures design was used, such that the LT with and without the addition of a PRM were both measured at the same time in one person by utilizing interwoven stimuli presentations. The LT for each PRM was measured by two to three panellists, the third panellists being included if the results of the first to panellists disagreed. […]

With `CC(C)CC1CC(C)(O)CCO1` (stereo not shown) [Florol ®, Tetrahydro-2-isobutyl-4-methyl-4(2H)-pyranol], the “Ammonia LT Panellist 1 Cond II” value came to 56.3 ppm, the “Ammonia LT Panellist 2 Cond II” value was 7.3 ppm, the “Ammonia LT Panellist 3 Cond II” value is recorded as 22.9 ppm and the “Ammonia LT Panellist 1 % Δ” value amounted to 146%. The “Ammonia LT Panellist 2 % Δ” value is reported as −62% and the “Ammonia LT Panellist 3 % Δ” value came to 0%.

Regarding `CCC1CC(C)(C)CCC1=O` (stereo not shown) [2-Ethyl-4,4-dimethyl-1-cyclohexanone], the “LT of ammonia Panellist 1 Cond II” value worked out at 3.5, the “LT of ammonia Panellist 2 Cond II” value amounted to 2.0, the “LT of ammonia Panellist 3 Cond II” value was 2.0 and the “LT of ammonia Panellist 1 %Δ” value turned out to be 212%. For the same molecule, the “LT of ammonia Panellist 2 %Δ” value came out at 471% and the “LT of ammonia Panellist 3 %Δ” value came out at 217%.

As to `C[C@@H]1CC[C@H]2[C@H](C)C(=O)O[C@@H]2C1` [(+)-(3S,3AS,6R,7AR)-perhydro-3,6-dimethyl-benzo[B]furan-2-one], the “LT of ammonia Panellist 1 Cond II” value is listed as 19.6, the “LT of ammonia Panellist 2 Cond II” value came to 3.5, the “LT of ammonia Panellist 3 Cond II” value came out at 11.1 and the “LT of ammonia Panellist 1 %Δ” value is 885%. Moreover, the “LT of ammonia Panellist 2 %Δ” value is recorded as 4929% and the “LT of ammonia Panellist 3 %Δ” value is 1682%.

As for `CCC/C(C)=C\COC(C)=O` [Aladinate ®, (Z)-3-methyl-2-hexenyl acetate], the “Ammonia LT Panellist 1 Cond II” value was found to be 19.1 ppm, the “Ammonia LT Panellist 2 Cond II” value came out at 71.9 ppm, the “Ammonia LT Panellist 1 % Δ” value is given as −16% and the “Ammonia LT Panellist 2 % Δ” value worked out at 0%.

For the molecule `CC(C)=CCCC(C)CCO` (stereo not shown) [Citronellol], the “Ammonia LT Panellist 1 Cond II” value came out at 60.0 ppm, the “Ammonia LT Panellist 2 Cond II” value was found to be 225.5 ppm, the “Ammonia LT Panellist 1 % Δ” value stood at 2978% and the “Ammonia LT Panellist 2 % Δ” value is 20%.

For the molecule `C=CCOC(=O)CCCCCC` [Allyl heptanoate], the “Ammonia LT Panellist 1 Cond II” value is 71.9 ppm, the “Ammonia LT Panellist 2 Cond II” value was 225.5 ppm, the “Ammonia LT Panellist 1 % Δ” value came to 28% and the “Ammonia LT Panellist 2 % Δ” value is listed as 20%.

On to `C/C=C/C(=O)C1C(C)C=CCC1(C)C` (stereo not shown) [Delta damascone ®, Delta damascone], for which the “Ammonia LT Panellist 1 Cond II” value stood at 7.3 ppm, the “Ammonia LT Panellist 2 Cond II” value came out at 225.5 ppm, the “Ammonia LT Panellist 3 Cond II” value is on record as 7.3 ppm and the “Ammonia LT Panellist 1 % Δ” value is given as −68%. The “Ammonia LT Panellist 2 % Δ” value is reported as 214% and the “Ammonia LT Panellist 3 % Δ” value is listed as −96%.

Consider “Mixture of 3-(4-ethylphenyl)-2,2-dimethylpropanal and 3(2-ethylphenyl)-2,2-dimethylpropanal [Floralozone]”, for which the “LT of ammonia Panellist 1 Cond II” value is on record as 2.0, the “LT of ammonia Panellist 2 Cond II” value is given as 6.3, the “LT of ammonia Panellist 3 Cond II” value is recorded as 3.5 and the “LT of ammonia Panellist 1 %Δ” value is given as 895%. For the same molecule, the “LT of ammonia Panellist 2 %Δ” value stood at 214% and the “LT of ammonia Panellist 3 %Δ” value amounted to 77%.

`CCCc1ccc(OC)cc1` [Dihydroestragole]: the “Ammonia LT Panellist 1 Cond II” value is given as 7.3 ppm, the “Ammonia LT Panellist 2 Cond II” value is 71.9 ppm, the “Ammonia LT Panellist 3 Cond II” value worked out at 22.9 ppm and the “Ammonia LT Panellist 1 % Δ” value is −62%. The “Ammonia LT Panellist 2 % Δ” value was 28% and the “Ammonia LT Panellist 3 % Δ” value worked out at 214%.

As to `CCOC(=O)C(C)CC` (stereo not shown) [Ethyl 2-methylbutanoate], the “LT of ammonia Panellist 1 Cond II” value came out at 19.6, the “LT of ammonia Panellist 2 Cond II” value was found to be 11.1, the “LT of ammonia Panellist 3 Cond II” value is reported as 11.1 and the “LT of ammonia Panellist 1 %Δ” value stood at 214%. Also, the “LT of ammonia Panellist 2 %Δ” value was 213% and the “LT of ammonia Panellist 3 %Δ” value was 77%.

In the case of `CC1=C(C=O)C(C)(C)CC=C1` [Safranal], the “Ammonia LT Panellist 1 Cond II” value is recorded as 22.9 ppm, the “Ammonia LT Panellist 2 Cond II” value is listed as 2.2E−03 ppm, the “Ammonia LT Panellist 1 % Δ” value is recorded as 20% and the “Ammonia LT Panellist 2 % Δ” value worked out at 3088%.

`COc1cc(C)ccc1O` [Creosol H]: the “Ammonia LT Panellist 1 Cond II” value was 17.9 ppm, the “Ammonia LT Panellist 2 Cond II” value was determined as 7.3 ppm, the “Ammonia LT Panellist 1 % Δ” value was −68% and the “Ammonia LT Panellist 2 % Δ” value is recorded as −90%.

On to `CC(OC=O)C1CCCC(C)(C)C1` (stereo not shown) [Aphermate], for which the “Ammonia LT Panellist 1 Cond II” value is 6.1 ppm, the “Ammonia LT Panellist 2 Cond II” value amounted to 71.9 ppm, the “Ammonia LT Panellist 1 % Δ” value was −68% and the “Ammonia LT Panellist 2 % Δ” value was −59%.

`CC1C(=O)O[C@H]2C[C@@H](C)CC[C@H]12` (mixture of isomers) [Koumalactone ®, (3aRS,6SR,7aSR)-perhydro-3,6-dimethyl-benzo[B]furan-2-one]: the “Ammonia LT Panellist 1 Cond II” value is on record as 19.1 ppm, the “Ammonia LT Panellist 2 Cond II” value is given as 71.9 ppm, the “Ammonia LT Panellist 1 % Δ” value is 162% and the “Ammonia LT Panellist 2 % Δ” value is given as 214%.

For the molecule `COC(=O)c1ccccc1` [Methyl benzoate], the “Ammonia LT Panellist 1 Cond II” value is recorded as 7.3 ppm, the “Ammonia LT Panellist 2 Cond II” value is recorded as 60 ppm, the “Ammonia LT Panellist 1 % Δ” value amounted to 213% and the “Ammonia LT Panellist 2 % Δ” value was determined as 162%.

As to `CCCCCC1C(=O)CCC1CC(=O)OC` (stereo not shown) [Hedione ®, Methyl dihydrojasmonate], the “Ammonia LT Panellist 1 Cond II” value is given as 7.5 ppm, the “Ammonia LT Panellist 2 Cond II” value came out at 22.9 ppm, the “Ammonia LT Panellist 3 Cond II” value amounted to 6.1 ppm and the “Ammonia LT Panellist 1 % Δ” value came to 23%. The “Ammonia LT Panellist 2 % Δ” value is recorded as −90% and the “Ammonia LT Panellist 3 % Δ” value is given as −68%.

On to `CC(C=O)Cc1ccc(C(C)(C)C)cc1` (stereo not shown) [Lilial ®, 3-(4-Tert-butylphenyl)-2-methylpropanal], for which the “Ammonia LT Panellist 1 Cond II” value was 22.9 ppm, the “Ammonia LT Panellist 2 Cond II” value came to 7.3 ppm, the “Ammonia LT Panellist 3 Cond II” value is 19.1 ppm and the “Ammonia LT Panellist 1 % Δ” value was determined as 300%. For the same molecule, the “Ammonia LT Panellist 2 % Δ” value was −96% and the “Ammonia LT Panellist 3 % Δ” value was 0%.

As for “Mixture of (E)-4-(2,2,C-3,T-6-tetramethyl-R-1-cyclohexyl)-3-buten-2-one and (E)-4-(2,2,T-3,T-6-tetramethyl-R-1-cyclohexyl)-3-buten-2-one [Myrrhone ®]”, the “LT of ammonia Panellist 1 Cond II” value is 11.1, the “LT of ammonia Panellist 2 Cond II” value was determined as 3.5, the “LT of ammonia Panellist 3 Cond II” value was 3.5 and the “LT of ammonia Panellist 1 %Δ” value came out at 77%. In addition, the “LT of ammonia Panellist 2 %Δ” value came out at 212% and the “LT of ammonia Panellist 3 %Δ” value amounted to 77%.

As to `CCCCOC(C)=O` [Butyl acetate], the “Ammonia LT Panellist 1 Cond II” value stood at 7.3 ppm, the “Ammonia LT Panellist 2 Cond II” value was 225.5 ppm, the “Ammonia LT Panellist 1 % Δ” value stood at 213% and the “Ammonia LT Panellist 2 % Δ” value came out at 1079%.

For `CCCC(=O)OCC(C)C` [Isopropylmethyl butyrate], the “Ammonia LT Panellist 1 Cond II” value is given as 188.4 ppm, the “Ammonia LT Panellist 2 Cond II” value is 188.3 ppm, the “Ammonia LT Panellist 1 % Δ” value is on record as 81809% and the “Ammonia LT Panellist 2 % Δ” value was found to be 235%.
